What was measured:
[1] = biological target: T1, Cytoplasmic tyrosine-protein kinase BMX (Homo sapiens) (UniProt P51813); assay: Inhibition of human full length BMX expressed in baculovirus assessed as substrate phosphorylation using fluorescence-labelled peptides as substrate at 0.06 uM after 90 mins by microfluidic peptide phosphorylation assay
T1 sequence (whole entry): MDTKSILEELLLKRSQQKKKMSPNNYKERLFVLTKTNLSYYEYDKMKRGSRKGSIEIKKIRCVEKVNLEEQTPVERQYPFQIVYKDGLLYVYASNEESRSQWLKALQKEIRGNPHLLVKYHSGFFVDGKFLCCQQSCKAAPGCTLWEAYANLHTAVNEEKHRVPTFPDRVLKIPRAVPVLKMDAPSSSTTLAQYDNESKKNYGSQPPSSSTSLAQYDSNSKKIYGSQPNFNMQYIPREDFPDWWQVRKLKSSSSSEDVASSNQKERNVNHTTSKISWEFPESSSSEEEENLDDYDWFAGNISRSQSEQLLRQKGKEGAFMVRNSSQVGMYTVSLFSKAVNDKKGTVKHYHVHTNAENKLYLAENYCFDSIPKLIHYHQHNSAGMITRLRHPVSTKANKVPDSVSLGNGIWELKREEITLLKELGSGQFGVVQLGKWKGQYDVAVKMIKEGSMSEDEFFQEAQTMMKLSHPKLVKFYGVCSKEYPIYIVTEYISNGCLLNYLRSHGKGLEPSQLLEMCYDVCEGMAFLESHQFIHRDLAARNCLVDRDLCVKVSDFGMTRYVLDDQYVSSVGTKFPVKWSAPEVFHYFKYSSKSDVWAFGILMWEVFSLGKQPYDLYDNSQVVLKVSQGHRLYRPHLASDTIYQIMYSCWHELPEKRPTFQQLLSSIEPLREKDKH

[2] = biological target: Protein kinase C eta type (Homo sapiens) (UniProt P24723); assay: Inhibition of human truncated PKC eta expressed in baculovirus assessed as substrate phosphorylation using fluorescence-labelled peptides as substrate at 420 uM after 90 mins by microfluidic peptide phosphorylation assay
Sequence of Protein kinase C eta type (Homo sapiens) (P24723 whole entry, the tested form may be a part): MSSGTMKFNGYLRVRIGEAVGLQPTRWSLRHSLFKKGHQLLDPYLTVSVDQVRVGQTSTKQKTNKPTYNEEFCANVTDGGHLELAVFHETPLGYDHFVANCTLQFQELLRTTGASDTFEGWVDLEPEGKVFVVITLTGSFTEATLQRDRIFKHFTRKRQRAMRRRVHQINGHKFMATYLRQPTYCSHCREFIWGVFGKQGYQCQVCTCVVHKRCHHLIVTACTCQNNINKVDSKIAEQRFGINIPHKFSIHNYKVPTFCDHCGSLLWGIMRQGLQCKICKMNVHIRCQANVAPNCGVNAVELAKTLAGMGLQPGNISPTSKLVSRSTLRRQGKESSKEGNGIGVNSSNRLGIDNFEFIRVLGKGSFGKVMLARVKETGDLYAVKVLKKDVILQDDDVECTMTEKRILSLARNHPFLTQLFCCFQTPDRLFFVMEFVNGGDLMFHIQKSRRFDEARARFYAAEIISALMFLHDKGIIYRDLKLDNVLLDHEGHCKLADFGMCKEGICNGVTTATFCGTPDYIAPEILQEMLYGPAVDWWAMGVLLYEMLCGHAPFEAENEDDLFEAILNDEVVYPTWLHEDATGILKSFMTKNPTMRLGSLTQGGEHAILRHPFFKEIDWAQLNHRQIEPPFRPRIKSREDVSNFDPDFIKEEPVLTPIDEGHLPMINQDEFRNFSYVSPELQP

[3] = biological target: Ribosomal protein S6 kinase alpha-2 (Homo sapiens) (UniProt Q15349); assay: Inhibition of human full length RSK3 expressed in baculovirus assessed as substrate phosphorylation using fluorescence-labelled peptides as substrate at […] after 90 mins by microfluidic peptide phosphorylation assay
Sequence of Ribosomal protein S6 kinase alpha-2 (Homo sapiens) (Q15349 whole entry): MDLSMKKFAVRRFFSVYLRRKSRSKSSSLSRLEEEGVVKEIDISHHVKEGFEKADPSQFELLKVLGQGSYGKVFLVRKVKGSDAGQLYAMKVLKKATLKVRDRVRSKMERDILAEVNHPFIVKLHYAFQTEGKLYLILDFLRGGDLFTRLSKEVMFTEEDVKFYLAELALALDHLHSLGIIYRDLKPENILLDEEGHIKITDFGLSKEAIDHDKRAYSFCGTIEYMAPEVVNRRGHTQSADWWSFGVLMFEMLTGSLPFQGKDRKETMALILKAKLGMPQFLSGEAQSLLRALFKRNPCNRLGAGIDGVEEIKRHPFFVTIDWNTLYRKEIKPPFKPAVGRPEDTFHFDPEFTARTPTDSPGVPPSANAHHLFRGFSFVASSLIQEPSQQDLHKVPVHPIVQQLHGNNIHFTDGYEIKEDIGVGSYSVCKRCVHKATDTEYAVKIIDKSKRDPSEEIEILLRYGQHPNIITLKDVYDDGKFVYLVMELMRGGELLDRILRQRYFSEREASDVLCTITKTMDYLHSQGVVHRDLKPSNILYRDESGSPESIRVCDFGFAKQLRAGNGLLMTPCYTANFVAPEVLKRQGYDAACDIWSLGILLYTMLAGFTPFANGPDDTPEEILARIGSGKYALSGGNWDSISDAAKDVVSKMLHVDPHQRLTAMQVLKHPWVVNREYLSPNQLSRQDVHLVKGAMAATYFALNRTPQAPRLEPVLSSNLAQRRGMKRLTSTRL

[4] = biological target: Tyrosine-protein kinase Fer (Homo sapiens) (UniProt P16591); conditions: 0.1 uM
Sequence of Tyrosine-protein kinase Fer (Homo sapiens) (P16591 whole entry, looked up): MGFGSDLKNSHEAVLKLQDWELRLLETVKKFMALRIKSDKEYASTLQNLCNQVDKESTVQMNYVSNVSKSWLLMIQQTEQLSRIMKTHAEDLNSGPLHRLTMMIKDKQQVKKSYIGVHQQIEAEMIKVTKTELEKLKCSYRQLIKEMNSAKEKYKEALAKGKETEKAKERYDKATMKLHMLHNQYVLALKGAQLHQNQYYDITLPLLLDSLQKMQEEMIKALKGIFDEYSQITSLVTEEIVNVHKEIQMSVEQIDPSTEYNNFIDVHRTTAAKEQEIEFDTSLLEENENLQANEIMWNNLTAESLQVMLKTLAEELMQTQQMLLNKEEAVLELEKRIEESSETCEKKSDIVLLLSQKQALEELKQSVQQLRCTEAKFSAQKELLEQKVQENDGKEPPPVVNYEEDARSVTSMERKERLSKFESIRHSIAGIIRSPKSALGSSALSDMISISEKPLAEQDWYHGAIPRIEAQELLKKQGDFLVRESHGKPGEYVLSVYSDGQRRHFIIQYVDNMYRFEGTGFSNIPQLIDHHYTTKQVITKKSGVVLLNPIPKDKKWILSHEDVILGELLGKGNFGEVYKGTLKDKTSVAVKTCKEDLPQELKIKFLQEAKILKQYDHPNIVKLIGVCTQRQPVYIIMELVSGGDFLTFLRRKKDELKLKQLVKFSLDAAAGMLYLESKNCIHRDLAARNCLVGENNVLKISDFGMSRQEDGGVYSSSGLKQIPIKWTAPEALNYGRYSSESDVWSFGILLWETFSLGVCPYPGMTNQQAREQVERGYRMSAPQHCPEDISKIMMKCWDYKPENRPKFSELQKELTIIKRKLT
Description: Inhibition of human FER catalytic domain expressed in baculovirus assessed as substrate phosphorylation using fluorescence-labelled peptides as substrate at 0.1 uM after 90 mins by microfluidic peptide phosphorylation assay

[5] = biological target: Protein kinase C eta type (Homo sapiens) (UniProt P24723); conditions: 0.1 uM
Description: Inhibition of human truncated PKC eta expressed in baculovirus assessed as substrate phosphorylation using fluorescence-labelled peptides as substrate at 0.1 uM after 90 mins by microfluidic peptide phosphorylation assay

[6] = biological target: Tyrosine-protein kinase Lck (Homo sapiens) (UniProt P06239); conditions: 0.1 uM
Sequence of Tyrosine-protein kinase Lck (Homo sapiens) (P06239 2-509 limits assumed): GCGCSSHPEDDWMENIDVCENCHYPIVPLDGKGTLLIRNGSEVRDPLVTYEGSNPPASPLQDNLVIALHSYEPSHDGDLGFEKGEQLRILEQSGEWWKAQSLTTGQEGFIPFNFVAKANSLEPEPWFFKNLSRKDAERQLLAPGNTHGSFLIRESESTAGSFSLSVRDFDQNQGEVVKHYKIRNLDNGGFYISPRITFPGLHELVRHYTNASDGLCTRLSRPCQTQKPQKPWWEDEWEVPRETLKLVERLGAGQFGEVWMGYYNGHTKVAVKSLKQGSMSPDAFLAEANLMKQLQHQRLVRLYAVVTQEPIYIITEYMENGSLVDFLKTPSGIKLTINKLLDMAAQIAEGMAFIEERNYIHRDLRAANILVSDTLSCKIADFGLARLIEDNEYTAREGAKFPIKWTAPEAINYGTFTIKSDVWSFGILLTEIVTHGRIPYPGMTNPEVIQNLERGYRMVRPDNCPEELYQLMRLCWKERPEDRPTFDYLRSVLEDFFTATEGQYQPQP
Description: Inhibition of human full length LCK expressed in baculovirus assessed as substrate phosphorylation using fluorescence-labelled peptides as substrate at 0.1 uM after 90 mins by microfluidic peptide phosphorylation assay

[7] = biological target: T2, Serine/threonine-protein kinase Sgk1 (Homo sapiens) (UniProt O00141); assay: Inhibition of human truncated SGK1 expressed in baculovirus assessed as substrate phosphorylation using fluorescence-labelled peptides as substrate at 1000 uM after 90 mins by microfluidic peptide phosphorylation assay
T2 sequence (whole entry): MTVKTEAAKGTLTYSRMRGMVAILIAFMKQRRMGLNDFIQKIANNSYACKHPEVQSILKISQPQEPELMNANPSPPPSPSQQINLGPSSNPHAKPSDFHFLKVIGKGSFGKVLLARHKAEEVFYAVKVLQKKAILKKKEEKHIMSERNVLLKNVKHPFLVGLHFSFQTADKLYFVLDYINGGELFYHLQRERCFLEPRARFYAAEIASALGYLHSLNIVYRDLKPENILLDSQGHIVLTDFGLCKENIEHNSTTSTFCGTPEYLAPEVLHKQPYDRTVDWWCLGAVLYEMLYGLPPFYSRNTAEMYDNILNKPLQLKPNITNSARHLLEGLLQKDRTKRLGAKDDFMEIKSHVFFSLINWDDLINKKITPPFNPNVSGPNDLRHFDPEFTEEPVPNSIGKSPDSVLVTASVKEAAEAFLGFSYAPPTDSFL

[8] = biological target: T3, Serine/threonine-protein kinase D3 (Homo sapiens) (UniProt O94806); assay: Inhibition of human full length PKD3 expressed in baculovirus assessed as substrate phosphorylation using fluorescence-labelled peptides as substrate at 2 uM after 90 mins by microfluidic peptide phosphorylation assay
T3 sequence (whole entry): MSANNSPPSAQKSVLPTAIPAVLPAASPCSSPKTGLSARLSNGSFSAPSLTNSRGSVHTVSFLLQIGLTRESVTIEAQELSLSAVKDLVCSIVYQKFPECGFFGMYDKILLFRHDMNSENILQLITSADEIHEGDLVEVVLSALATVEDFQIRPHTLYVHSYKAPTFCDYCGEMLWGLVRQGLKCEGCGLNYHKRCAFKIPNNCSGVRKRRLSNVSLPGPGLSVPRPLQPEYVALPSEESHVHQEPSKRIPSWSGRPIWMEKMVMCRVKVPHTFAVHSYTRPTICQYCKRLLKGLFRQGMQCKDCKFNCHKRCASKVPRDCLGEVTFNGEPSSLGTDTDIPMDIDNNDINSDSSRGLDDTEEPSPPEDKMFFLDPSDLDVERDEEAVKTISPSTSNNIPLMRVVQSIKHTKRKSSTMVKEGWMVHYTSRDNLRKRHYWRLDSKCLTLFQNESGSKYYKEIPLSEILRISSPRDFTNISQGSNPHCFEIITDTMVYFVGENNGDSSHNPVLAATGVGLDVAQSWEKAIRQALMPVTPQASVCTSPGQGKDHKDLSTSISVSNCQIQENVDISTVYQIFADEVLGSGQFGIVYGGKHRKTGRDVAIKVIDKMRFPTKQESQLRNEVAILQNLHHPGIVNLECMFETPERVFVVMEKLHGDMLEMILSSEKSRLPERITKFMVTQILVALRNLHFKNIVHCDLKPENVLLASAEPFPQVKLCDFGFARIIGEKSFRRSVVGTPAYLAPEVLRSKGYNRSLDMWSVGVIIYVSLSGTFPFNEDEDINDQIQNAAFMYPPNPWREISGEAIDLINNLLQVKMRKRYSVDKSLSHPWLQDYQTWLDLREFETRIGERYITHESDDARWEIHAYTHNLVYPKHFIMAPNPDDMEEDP

`NC1(Cc2ccc(Cl)cc2)CCN(c2ncnc3[nH]ccc23)CC1` was tested, and the inhibition [1] was 0%.
With `c1nc(N2CCOCC2)c2nc[nH]c2n1` the inhibition [2] was 82%.
In the case of `COC(=O)c1cnc(Nc2cnc(C#N)cn2)cc1NCC1CCNCC1`, the inhibition [3] is reported as 44%.
Work on `C[C@H](CN(C)C)Oc1nc(Nc2cc3cccc(Cl)c3cn2)cnc1C#N` yielded an inhibition [4] of 0%, an inhibition [5] of 0% and an inhibition [6] of 0%.
With `c1cnc2[nH]ccc2c1` the inhibition [7] was 94%.
In the case of `NC1CCN(c2ncnc3[nH]ccc23)CC1`, the inhibition [8] is reported as 0%.
